“And” between values parts separate entries of the source, which are not always exact repeats. Identical values can stand only once. Like-named read-outs stand apart in the source and are kept apart here.
Assays:
[1] = Urinary excretion of flavanol metabolites (0-24 h) after a single serving of soluble cocoa product (HPLC-ESI-QToF-MS); format: in vivo, human; conditions: for Excreted in urine, Basal: basal urine (−2–0 h, before intake); for Excreted in urine, Basal / Excreted in urine, Total / Excreted in urine, 0–4 h / Excreted in urine, 4–8 h / Excreted in urine, 8–12 h / Excreted in urine, 12–24 h: mean ± SD, n = 13; for Excreted in urine, Total: 24 h urine
Outline: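 Fasted women drank 15 g CC or 25 g CC-PP soluble cocoa in 200 mL semi-skimmed milk, in a randomized, single-blind design with visits two weeks apart and a 3-day low-polyphenol diet beforehand. Excreted amounts were normalized to urine volume per interval, quantified against standards or precursor calibration curves.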

[2] = Plasma nutrikinetics of flavanol metabolites after a single serving of soluble cocoa product (HPLC-ESI-QToF-MS); format: in vivo, human; conditions: for Tmax / Cmax: human plasma; for Tmax: read-out: Tmax
Protocol: The study was carried out in thirteen healthy subjects (3 men and 10 women); the mens’ average age and body mass index were 26.67 ± 3.21 year and 22.47 ± 2.97 kg/m^2, respectively, and womens’ were 32.60 ± 9.85 year and 23.36 ± 3.73 kg/m^2, respectively. They were non-smoker, non-vegetarian, non-pregnant women, who were not taking any medication or nutritional supplements, and were not suffering from any chronic pathology or gastrointestinal disorder. The sample size was estimated attending to similar previous bioavailability studies. The volunteers gave their informed consent prior to participation.
The present randomized, single-blind study was carried out at the Human Nutrition Unit (HNU) of the Institute of Food Science, Technology and Nutrition (ICTAN). Volunteers attended the HNU on two days, separated by two weeks. Three days previous to each visit, participants were instructed not to consume cocoa products (chocolate, soluble cocoa, etc.), juices, tea, wine, grape must, oranges, tangerines, apples, grapes, strawberries or other berries, beets, onions, soybeans and soy derivatives. In addition, volunteers were asked to complete a 24 h food intake recall the day before they attended the HNU in order to monitor any possible food restriction incompliance.
On each intervention day, volunteers arrived at the HNU after an overnight fast. Prior to the intake of the soluble cocoa product, a nurse inserted a cannula in the cubital vein of the non-prevailing arm of the volunteers and blood samples were collected into EDTA-coated tubes at baseline (t = 0) and 0.5, 1, 2, 3, 4, 6, and 8 h after consuming the corresponding cocoa product. The soluble cocoa products, either 15 g of CC or 25 g CC-PP, were dissolved in 200 mL of semi-skimmed milk following manufacturer’s preparation instructions. Plasma was separated by centrifugation (10 min, 3000 rpm, 4 °C) and stored at −80 °C until further analysis. Urine samples were collected at different time intervals (t = −2–0, 0–4, 4–8, 8–12, and 12–24 h) in urine collection flasks that contained 0.5 g of ascorbic acid as preservative and were aliquoted and frozen at −20 °C until analysis. A polyphenol-free breakfast, lunch and afternoon snack were provided 2 h, 4 h, and 8 h after consumption of cocoa products, and water and isotonic beverages were available ad libitum.
A liquid–liquid extraction and protein precipitation with acetonitrile was used to isolate metabolites from plasma. A 1 mL defrosted plasma sample was mixed with 50 μL of ascorbic acid (0.2 g/mL). After vortexing the aqueous mixture, it was added drop wise to 750 μL of cold acetonitrile and vortexed for 2 min before centrifuging at 12,000 rpm for 10 min at 4 °C. The supernatant was separated, and the pellet was re-extracted twice more following the same procedure. Supernatants were combined and reduced to dryness under a stream of nitrogen at 30 °C. The dried samples were resuspended in 150 μL of aqueous formic acid (0.1%) containing 10% acetonitrile acidified with 0.1% formic acid and centrifuged at 4 °C for 20 min at 14,000 rpm. The final supernatant was collected, filtered (0.45 μm pore-size, cellulose-acetate membrane filters, Albet, Dassel (Germany)) and 30 μL were analyzed by high-performance liquid chromatography coupled to electrospray ionisation and quadrupole time-of-flight mass spectrometry (HPLC-ESI-QToF-MS).
Analyses were performed on an Agilent 1200 series LC system coupled to an Agilent 6530A Accurate-Mass Quadrupole Time-Of-Flight (Q-ToF) with ESI-Jet Stream Technology (Agilent Technologies). Compounds were separated on a reverse-phase Ascentis Express C18 (15 cm × 3 mm, […]) column (Sigma-Aldrich Química, Madrid) preceded by a Supelco 55215-U guard column at 30 °C. […]

[3] = cited from earlier work
[4] = set-up: method as in PMID 23864538; conditions: based on recovery in the perfusion fluid, eight volunteers; cited from earlier work
[5] = after CC-PP (68.25 mg flavanols)

For `O=C1CCC(Cc2cccc(OS(=O)(=O)O)c2)O1` (stereo not shown) [PVL-3′-sulfate, 5-Phenyl-γ-valerolactone-3′-sulfate], the “Excreted in urine, Basal” value ([1]; CC intervention) was “<L.Q”, the “Excreted in urine, Basal” value ([1]; CC-PP intervention) was “<L.Q” and the “Excreted in urine, Total” value ([1]; after CC (19.80 mg flavanols)) was 1.691 ± 0.802 µmol. The “Excreted in urine, 0–4 h” value ([1]; after CC (19.80 mg flavanols)) was “<L.Q”, the “Excreted in urine, 4–8 h” value ([1]; after CC (19.80 mg flavanols)) was 0.860 ± 0.385 µmol and the “Excreted in urine, 8–12 h” value ([1]; after CC (19.80 mg flavanols)) was 0.456 ± 0.284 µmol. The “Excreted in urine, 12–24 h” value ([1]; after CC (19.80 mg flavanols)) was 0.375 ± 0.133 µmol, the “Excreted in urine, Total” value [1, 5] was 7.8 µmol and 7.752 ± 2.868 µmol and the “Excreted in urine, 0–4 h” value [1, 5] was 0.651 ± 0.389 µmol. The “Excreted in urine, 4–8 h” value [1, 5] was 4.188 ± 1.535 µmol, the “Excreted in urine, 8–12 h” value [1, 5] was 1.223 ± 0.373 µmol and the “Excreted in urine, 12–24 h” value [1, 5] was 1.690 ± 0.572 µmol. The Tmax ([2]; both sexes, oral, 19.8 mg, after CC (19.80 mg flavanols), mean ± SD, n = 13) was 4 to 6 h, the AUC ([2]; both sexes, oral, human plasma 0-8 h, after CC-PP (68.25 mg flavanols), mean ± SD, n = 13, read-out: AUC) was 0.161 ± 0.105 µM·h and the Tmax ([2]; both sexes, oral, after CC-PP (68.25 mg flavanols), mean ± SD, n = 13) was 5.2 ± 2.2 h. The Cmax ([2]; both sexes, oral, after CC-PP (25 g in 200 mL semi-skimmed milk, 68.25 mg flavanols), mean ± SD, n = 13, read-out: Cmax) was 39 ± 14 nM and the Cmax ([2]; after CC (15 g in 200 mL semi-skimmed milk, 19.80 mg flavanols), mean ± SD, n = 13) was “traces level”.

In the case of `Oc1cc(O)c2c(c1)O[C@H](c1ccc(O)c(O)c1)[C@H](O)C2` [epicatechin], the Excretion ([3]; after ingestion of chocolate providing 220 mg of flavanols) is listed as 29.8%, the Excretion ([3]; after ingestion of cocoa providing 220 mg of flavanols) is listed as 25.3% and the “Detection of un-metabolized compound in urine” value ([1]; any of the interventions (CC, CC-PP)) is listed as “Neither epicatechin nor PB2 dimer was detected in urine”. The “Jejunal absorption, average” value [4] was ~ 46% and the “Detection of un-metabolized compound in the collected biological fluids” value ([2]; plasma and urine, CC and CC-PP) was “Neither un-metabolized epicatechin and catechin nor procyanidins B1 and B2 were detected”.
